{
  "source": "patent US5639726A",
  "about": "“Peptide mediated enhancement of thrombolysis methods and compositions” (The Regents of the University of Michigan, priority 1994, dated 1997)",
  "key": {"[1]": {"target": "T1, PAI-1 (Homo sapiens, UniProt P05121)", "T1 construct": "made in house; host or cells: E. coli (vector pET3a)", "T1 sequence (P05121 24-402)": "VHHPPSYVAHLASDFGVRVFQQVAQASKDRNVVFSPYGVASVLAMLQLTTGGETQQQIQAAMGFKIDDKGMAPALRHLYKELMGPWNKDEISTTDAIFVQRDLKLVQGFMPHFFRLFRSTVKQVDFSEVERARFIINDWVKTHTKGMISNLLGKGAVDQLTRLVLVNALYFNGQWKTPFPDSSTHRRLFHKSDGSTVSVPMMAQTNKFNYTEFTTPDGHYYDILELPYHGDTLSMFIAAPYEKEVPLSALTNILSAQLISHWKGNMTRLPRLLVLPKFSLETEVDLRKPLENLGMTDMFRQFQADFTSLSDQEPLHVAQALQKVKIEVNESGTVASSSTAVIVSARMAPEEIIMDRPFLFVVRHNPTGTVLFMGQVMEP", "assay": "SDS-PAGE of peptide treated PAI-1 reacted with tPA, uPA or trypsin", "assay_type": "biochemical", "conditions": "for formation of SDS stable PAI-1:enzyme complexes after peptide treatment: free PAI-1 preincubated with peptide, then tPA (uPA or trypsin); for conversion of PAI-1 to a substrate (cleaved PAI-1): peptide treated PAI-1 reacted with tPA", "procedure": "(§1) SDS-polyacrylamide gel electrophoresis (SDS-PAGE) under nonreducing conditions was carried out according to the method of Laemmli (Laemmli, 1970) on 10% gels. Native gel electrophoresis with 5% gels was carried out by omitting SDS and boiling from Laemmli's method. All gels were stained with Coomassie brilliant blue. Gels of PAI-peptide samples were scanned with an LKB Ultroscan XL Laser Densitometer to determine the relative amounts of peptide-annealed and latent PAI.\nPAI that had been incubated with peptide was tested for inhibitory and substrate activity by incubating with tPA, uPA or trypsin. SDS-PAGE was then performed on the samples. Free PAI formed a complex band when incubated with any of the enzymes, as well as a faint band indicative of cleaved PAI. Because substoichiometric amounts of enzyme were used there was also a band for free PAI. When PAI was incubated with any of the peptides, the electrophoretic mobility was the same as that of free PAI after denaturing with SDS. When PAI was annealed to any of 8-mers, then allowed to react with tPA, uPA or trypsin, no PAI-enzyme complex band was seen.\nSDS-PAGE was performed using a PhastSystem (Pharmacia), Upssala, Sweden, according to manufacturer's instructions. Gels were stained with Coomassie Brilliant Blue.\nSDS-PAGE was performed to determine the effect of Thr-Val-Ala-Ser-Ser-Ser-Thr-Ala-Val-Ile-Val-Ser-Ala-Arg (SEQ ID NO: 1) on t-PA:PAI-1 complex formation in the presence and absence of vitronectin."}, "[2]": {"target": "T1, PAI-1", "assay": "Native gel electrophoresis of PAI incubated with peptide", "assay_type": "binding", "procedure": "as §1\nFour of the five peptides have a net negative charge due to glutamic acid residues and the free carboxy terminus (FIG. 1). The wtPAI 8-mer has a net -1 charge (the carboxy terminus). The V→E PAI 8-mer (SEQ ID NO:3) and consensus 8-mer (SEQ ID NO:4) each have a -2 charge (the glutamic acid residue and the carboxyl group). […] The PAI 14-mer (SEQ ID NO:1) is uncharged since it contains no glutamic acid and the arginine and carboxyl groups neutralize each other. Because of the negative charges of 4 of the peptides, native gels of PAI annealed to these peptides should show a band which migrates more quickly than the band representative of free active PAI. Similarly, if one of these peptides is incubated with PAI but fails to form a strong interaction with PAI, native gels should show a band which migrates identically to the free PAI."}, "[3]": {"system": "fibrin clot", "assay": "In vitro clot lysis assay, fluorescein-labeled fibrin clots with recombinant PAI-1", "assay_type": "biochemical, human", "procedure": "Clot lysis assays were performed as previously described (Fay et al., 1994). A mixture of glu-plasminogen (0.2 μM), fluorescein-labeled fibrinogen (3 μM), PAI-1 (0.7 μM) was prepared. t-PA (20 nM) was added 30 minutes after clot formation and clot lysis was allowed to occur for 60 minutes at 37° C., after which the tubes were centrifuged (16,000×3 min), and 80 μL of the supernatant was removed and diluted into 1.2 mL of 10 mM Tris-HCl, 140 mM NaCl, pH 7.5. The fluorescence of this dilution was measured and % clot lysis was calculated, as previously described (Fay et al., 1994). The capacity of P1-P14 peptide to accelerate fibrinolysis in vitro, both in the absence and presence of platelets was also evaluated. Fluorescein-labeled fibrin clots were formed in the presence of recombinant PAI-1 (0.7 μM) and either P1-P14 peptide (55 μM), an irrelevant 14 amino acid peptide (55 μM), or no peptide. After 30 min at 37° C., fibrinolysis was initiated by the addition of t-PA (20 nM), and % clot lysis was determined 60 min later. Addition of P1-P14 peptide increased clot lysis from 28±7% to 90±6% (mean±SEM of triplicate experiments), whereas the control peptide had no effect on clot lysis either in the presence or absence of PAI-1 (FIG. 6a). In similar experiments, platelet-rich clots were formed by clotting fluorescein-labeled fibrinogen in the presence of 2.5×10^8 platelets/mL, and fibrinolysis was initiated by the addition of t-PA (75 pM)."}, "[4]": {"system": "platelet-rich clots", "assay": "In vitro clot lysis assay, platelet-rich clots", "assay_type": "biochemical, human", "procedure": "Blood samples were collected by peripheral venipuncture from normal subjects into acid-citrate-dextrose anticoagulant (0.8% w/v citric acid, 2.2% trisodium citrate, 2.45% dextrose) at a ratio of 6 volumes of blood to 1 volume of anticoagulant. Donors had not consumed aspirin for at least 7 days prior to phlebotomy. Washed platelets were prepared by repeated centrifugation as previously described (Fay et al., 1994), then resuspended in Tyrode's buffer (137 mM NACl, 2.68 mM KCl, 2 mM CaCl2, 1 mM MgCl2, 0.36 mM NaH2 PO4, 11.9 mM NaHCO3, 5 mM HEPES, 0.1% glucose, 0.35% bovine serum albumin, pH 7.35). Clot lysis assays were performed as previously described (Fay et al., 1994). […] The fluorescence of this dilution was measured and % clot lysis was calculated, as previously described (Fay et al., 1994). […] The capacity of P1-P14 peptide to accelerate fibrinolysis in vitro, both in the absence and presence of platelets was also evaluated. […] After 30 min at 37° C., fibrinolysis was initiated by the addition of t-PA (20 nM), and % clot lysis was determined 60 min later. […]"}},
  "note": "Entries after “also recorded” stand apart in the source; their conditions may differ. Ends that are not written are not given here.",
  "data": [
    {"substance": "Ac-TVASSSTAVIVSAR [SEQ ID NO: 1, Thr-Val-Ala-Ser-Ser-Ser-Thr-Ala-Val-Ile-Val-Ser-Ala-Arg]", "values": [
      {"measurement": "formation of SDS stable PAI-1:enzyme complexes after peptide treatment", "setting": "[1]", "result": "no t-PA:PAI-1 complex formation was observed"},
      {"measurement": "formation of SDS stable PAI-1:enzyme complexes after peptide treatment", "setting": "[1]; listed as P1-P14 peptide", "result": "inhibited complex formation"},
      {"measurement": "PAI forms on SDS-PAGE", "setting": "[1]; high peptide concentration", "result": "almost all of the PAI is in the latent conformation"},
      {"measurement": "PAI forms on SDS-PAGE", "setting": "[1]; low peptide concentration", "result": "a significant substrate band formed along with the dominant latent PAI band"},
      {"measurement": "conversion of PAI-1 to a substrate (cleaved PAI-1)", "setting": "[1]", "result": "did not convert PAI-1 to a substrate form; also recorded: substrate form of PAI-1 was not generated"},
      {"measurement": "conversion of PAI-1 to a substrate (cleaved PAI-1)", "setting": "[1]; listed as wt14-mer", "result": "did not behave as a substrate"},
      {"measurement": "electrophoretic mobility of active PAI incubated with peptide, native gel", "setting": "[2]", "result": "a band at the same position as free active PAI"},
      {"measurement": "dependence of the degree of clot lysis on peptide concentration", "setting": "[3]", "result": "proportional"},
      {"measurement": "inhibition of PAI-1 function in the presence of fibrin", "setting": "[3]", "result": "nearly completely inhibited"},
      {"measurement": "effect on clot lysis in the absence of PAI-1", "setting": "[3]; absence of PAI-1", "result": "no augmentation of fibrinolysis"},
      {"measurement": "clot lysis at 60 minutes", "setting": "[3]; presence of PAI-1 (0.7 μM), peptide 55 μM, t-PA 20 nM, 28±7% without peptide", "result": "90±6", "unit": "%"},
      {"measurement": "tPA induced platelet rich clot lysis", "setting": "[4]; 70 μM peptide", "result": "significant enhancement"},
      {"measurement": "lysis of platelet-rich clots at 90 minutes", "setting": "[4]; 2.5×10^8 platelets/mL, t-PA 75 pM, 8±3% without peptide", "result": "41±12", "unit": "%"}
    ]}
  ]
}
